Columns and labels:
[1] = Liver microsome metabolic stability test (human); format: in vitro ADME; conditions: for microsomal CLint: liver microsomes, read-out: CLint (μL/min/mg) Human
Protocol: (§1) 1: To the sample wells of T0, T5, T10, T20, T30, T60 and NCF60, 10 μL of the test or reference working solution and 80 μL of microsome working solution (hepatic microsome with a protein concentration of 0.5 mg/mL) were added, and to Blank60 well, only the microsome working solution was added. Then samples of the Blank60, T5, T10, T20, T30 and T60 other than TO and NCF60 were placed in a 37° C. water bath and pre-incubated for about 10 min.
(§2) 2: To the TO sample well, 300 μL of stop solution (containing 200 ng/mL tolbutamide and 200 ng/mL labetalol in acetonitrile solution) was added first, followed by 10 μL of NADPH regeneration system working solution.
(§3) 3: After the pre-incubation of Blank60, T5, T10, T20, T30 and T60 incubation plates, 10 μL of NADPH regeneration system working solution was added to each sample well to start the reaction, and 10 μL of 100 mM potassium phosphate buffer was added to the NCF60 sample well.
(§4) 4: After incubation for an appropriate time (such as 5, 10, 20, 30 and 60 min), to each test sample well and control well of the Blank60, T5, T10, T20, T30, T60 and NCF60 plates, 300 μL of stop solution was added to terminate the reaction.
(§5) 5: All sample plates were shaken to mix well and centrifuged at 4000 rpm for 20 min, and 100 μL of the supernatant of the test sample or control sample was taken and diluted with 300 μL of pure water for LC-MS/MS analysis.
(§6) 6: Data analysis: T1/2 and CLint(mic) (μL/min/mg) values were calculated according to the first-order elimination kinetics. The first-order elimination kinetics equation was: […]

[2] = Liver microsome metabolic stability test (rat); format: in vitro ADME; conditions: for microsomal CLint: liver microsomes, read-out: CLint (μL/min/mg) Rat
Protocol: as §1, §2, §3, §4, §5, §6

SMILES	CLint (μL/min/mg) Human [1]	% Remaining (60 min) Human [1]	CLint (μL/min/mg) Rat [2]	% Remaining (60 min) Rat [2]	microsomal CLint [1]	microsomal CLint [2]
Nc1nccn2c(C3CC[C@@H](CO)OC3)nc(-c3ccc(C(=O)Nc4ccccn4)cc3F)c12 (stereo partly shown) [Example 1-B]	<9.6 µL/min/mg	99.9%	18.2 µL/min/mg	63.7%	–	–
COc1cccc(Oc2ccc(-c3nc(C4CCC(CO)OC4)n4ccnc(N)c34)cc2)c1F (stereo not shown) [Example 5]	–	–	–	–	38.8 µL/min/mg	122 µL/min/mg
Nc1nccn2c(C3CCC(CO)OC3)nc(-c3ccc(Oc4cccc(F)c4F)cc3)c12 (stereo not shown) [Example 8]	–	–	–	–	33.9 µL/min/mg	66.5 µL/min/mg
Nc1nccn2c(C3CCC(CO)OC3)nc(-c3ccc(Oc4cccc(Cl)c4F)cc3)c12 (stereo not shown) [Example 9]	–	24.5%	–	3.2%	48.4 µL/min/mg	114 µL/min/mg
COc1cccc(Oc2ccc(-c3nc(C4CCC(CO)OC4)n4c(Cl)cnc(N)c34)cc2)c1F (stereo not shown) [Example 12]	–	2.6%	–	3.0%	124 µL/min/mg	118 µL/min/mg
Nc1nccn2c(C3CCC(CO)OC3)nc(-c3ccc(Oc4ccccc4)cc3)c12 (stereo not shown) [Example 16]	–	31.8%	–	14.6%	36.9 µL/min/mg	63.9 µL/min/mg
Nc1nccn2c(C3CCC(CO)OC3)nc(-c3ccc(Oc4cccc(C(F)(F)F)c4F)cc3)c12 (stereo not shown) [Example 19]	–	–	–	–	47.1 µL/min/mg	83.1 µL/min/mg
Cc1cccc(Oc2ccc(-c3nc(C4CCC(CO)OC4)n4ccnc(N)c34)cc2)c1F (stereo not shown) [Example 24]	–	–	–	–	74.9 µL/min/mg	255 µL/min/mg
Nc1nccn2c(C3CCC(CO)OC3)nc(-c3ccc(C(=O)c4ccccc4)cc3)c12 (stereo not shown) [Example 26]	–	–	–	–	31.1 µL/min/mg	46.1 µL/min/mg
Nc1nccn2c(C3CCC(CO)OC3)nc(-c3ccc(Oc4c(F)cccc4F)cc3)c12 (stereo not shown) [Example 64]	–	–	–	–	36.8 µL/min/mg	81.6 µL/min/mg
Cc1ccnc(NC(=O)c2ccc(-c3nc(C4CCC(CO)OC4)n4ccnc(N)c34)cc2)c1 (stereo not shown) [Example 70]	–	–	–	–	13.2 µL/min/mg	30.3 µL/min/mg
COc1cccc(Oc2ccc(-c3nc(C4CCC(CO)OC4)n4ccnc(N)c34)cc2)c1 (stereo not shown) [Example 101]	–	–	–	–	< 9.6 µL/min/mg	29.8 µL/min/mg
Nc1nccn2c(C3CCC(CO)OC3)nc(-c3ccc(C(F)(F)c4ccccc4)cc3)c12 (stereo not shown) [Example 111]	–	–	–	–	10.9 µL/min/mg	26.1 µL/min/mg
